# Assay results reported in patent US9931327B2, “Derivatives of 1-phenyl-2-pyridinyl alkyl alcohols as phosphodiesterase inhibitors” (Chiesi Farmaceutici S.p.A., priority 2011, dated 2018).
# System: LPS-induced TNF-α release in peripheral blood mononuclear cells (PBMCs)
# Assay: In vitro determination of PDE4 inhibitory activity in the PBMCs assay (LPS-induced TNF-α release)
# Assay type: cell-based, human
# Conditions: PBMC; human PBMCs, LPS 3 ng/ml, 18 hours, TNF-α by ELISA; read-out: PDE4 inhibition (IC50, 50% inhibition of LPS-induced TNF-α release)
# Outline: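 Cryopreserved human PBMCs (10^5 cells/well) pre-incubated 30 min with compound (10^−12 to 10^−6 M or 10^−3 to 10^−7 M), then stimulated with LPS 3 ng/ml for 18 h at 37 °C. TNF-α in medium by ELISA; IC50 as mean ± 95% confidence limits.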
row,Compound,IC50 [nM]
1,"Cc1noc2ncc(S(=O)(=O)N3CCC[C@H]3C(=O)O[C@@H](Cc3c(Cl)c[n+]([O-])cc3Cl)c3ccc(OC(F)F)c(OCC4CC4)c3)cc12 [Compound 251, 3,5-dichloro-4-((S)-2-(3-(cyclopropylmethoxy)-4-(difluoromethoxy)phenyl)-2-((S)-1-(3-methylisoxazolo[5,4-b]pyridin-5-ylsulfonyl)pyrrolidine-2-carbonyloxy)ethyl)pyridine 1-oxide]",< 0.1
2,"CN1CCOc2ccc(S(=O)(=O)N3CSC[C@H]3C(=O)O[C@@H](Cc3c(Cl)c[n+]([O-])cc3Cl)c3ccc(OC(F)F)c(OCC4CC4)c3)cc21 [Compound 252, 3,5-dichloro-4-((S)-2-(3-(cyclopropylmethoxy)-4-(difluoromethoxy)phenyl)-2-((R)-3-(4-methyl-3,4-dihydro-2H-benzo[b][1,4]oxazin-6-ylsulfonyl)thiazolidine-4-carbonyloxy)ethyl)pyridine 1-oxide]",< 0.1
3,"Cc1noc2ncc(S(=O)(=O)N3CSC[C@H]3C(=O)O[C@@H](Cc3c(Cl)c[n+]([O-])cc3Cl)c3ccc(OC(F)F)c(OCC4CC4)c3)cc12 [Compound 253, 3,5-dichloro-4-((S)-2-(3-(cyclopropylmethoxy)-4-(difluoromethoxy)phenyl)-2-((R)-3-(3-methylisoxazolo[5,4-b]pyridin-5-ylsulfonyl)thiazolidine-4-carbonyloxy)ethyl)pyridine 1-oxide]",0.1 to 1
4,"CN(C)C(=O)c1cccc(S(=O)(=O)N2CCS[C@H]2C(=O)O[C@@H](Cc2c(Cl)c[n+]([O-])cc2Cl)c2ccc(OC(F)F)c(O)c2)c1 [Compound 263, 3,5-dichloro-4-((S)-2-(4-(difluoromethoxy)-3-hydroxyphenyl)-2-((S)-3-(3-(dimethylcarbamoyl)phenylsulfonyl)thiazolidine-2-carbonyloxy)ethyl)pyridine 1-oxide]",1 to 10
5,"NC(=O)Nc1cccc(S(=O)(=O)N2CCS[C@H]2C(=O)O[C@@H](Cc2c(Cl)c[n+]([O-])cc2Cl)c2ccc(OC(F)F)c(OCC3CC3)c2)c1 [Compound 269, 3,5-dichloro-4-((S)-2-(3-(cyclopropylmethoxy)-4-(difluoromethoxy)phenyl)-2-((S)-3-(3-ureidophenylsulfonyl)thiazolidine-2-carbonyloxy)ethyl)pyridine 1-oxide]",< 0.1
6,"O=C(O[C@@H](Cc1c(Cl)c[n+]([O-])cc1Cl)c1ccc(OC(F)F)c(OCC2CC2)c1)[C@@H]1SCCN1S(=O)(=O)c1cccc(CO)c1 [Compound 271, 3,5-dichloro-4-((S)-2-(3-(cyclopropylmethoxy)-4-(difluoromethoxy)phenyl)-2-((S)-3-(3-(hydroxymethyl)phenylsulfonyl)thiazolidine-2-carbonyloxy)ethyl)pyridine 1-oxide]",< 0.1
7,"CN(C)C(=O)c1cccc(S(=O)(=O)N2CC(C(=O)O[C@@H](Cc3c(Cl)c[n+]([O-])cc3Cl)c3ccc(OC(F)F)c(OCC4CC4)c3)C2)c1 [Compound 281, (S)-3,5-dichloro-4-(2-(3-(cyclopropylmethoxy)-4-(difluoromethoxy)phenyl)-2-(1-(3-(dimethylcarbamoyl)phenylsulfonyl)azetidine-3-carbonyloxy)ethyl)pyridine 1-oxide]",0.1 to 1
8,"O=C(O[C@@H](Cc1c(Cl)c[n+]([O-])cc1Cl)c1ccc(OC(F)F)c(OCC2CC2)c1)[C@@H]1SCCN1S(=O)(=O)CCN1CCOCC1 [Compound 287, 3,5-dichloro-4-((S)-2-(3-(cyclopropylmethoxy)-4-(difluoromethoxy)phenyl)-2-((S)-3-(2-morpholinoethylsulfonyl)thiazolidine-2-carbonyloxy)ethyl)pyridine 1-oxide]",< 0.1
9,"CN1CCN(CCS(=O)(=O)N2CCS[C@H]2C(=O)O[C@@H](Cc2c(Cl)c[n+]([O-])cc2Cl)c2ccc(OC(F)F)c(OCC3CC3)c2)CC1 [Compound 288, 3,5-dichloro-4-((S)-2-(3-(cyclopropylmethoxy)-4-(difluoromethoxy)phenyl)-2-((S)-3-(2-(4-methylpiperazin-1-yl)ethylsulfonyl)thiazolidine-2-carbonyloxy)ethyl)pyridine 1-oxide]",0.1 to 1
10,"CN(C)C(=O)c1cccc(CS(=O)(=O)N2CCS[C@H]2C(=O)O[C@@H](Cc2c(Cl)c[n+]([O-])cc2Cl)c2ccc(OC(F)F)c(OCC3CC3)c2)c1 [Compound 295, 3,5-dichloro-4-((S)-2-(3-(cyclopropylmethoxy)-4-(difluoro-methoxy)phenyl)-2-((S)-3-(3-(dimethylcarbamoyl)benzylsulfonyl)-thiazolidine-2-carbonyloxy)ethyl)pyridine 1-oxide]",0.1 to 1
11,"COc1cc([C@H](Cc2c(Cl)c[n+]([O-])cc2Cl)OC(=O)[C@@H]2SCCN2S(=O)(=O)c2cccc(C(=O)N(C)C)c2)ccc1OC(F)F [Compound 299, 3,5-dichloro-4-((S)-2-(4-(difluoromethoxy)-3-methoxyphenyl)-2-((S)-3-(3-(dimethylcarbamoyl)phenylsulfonyl)thiazolidine-2-carbonyloxy)ethyl)pyridine 1-oxide]",< 0.1
12,"COc1ccc([C@H](Cc2c(Cl)c[n+]([O-])cc2Cl)OC(=O)[C@@H]2CCCN2S(=O)(=O)c2cccc(C(=O)N(C)C)c2)cc1OC [Compound 310, 3,5-dichloro-4-((S)-2-(3,4-dimethoxyphenyl)-2-((S)-1-(3-(dimethylcarbamoyl)phenylsulfonyl)pyrrolidine-2-carbonyloxy)ethyl)pyridine 1-oxide]",< 0.1
